Like-named read-outs stand apart in the source and are kept apart here.
System: nerve/muscle (motor plate) junction, phrenic nerve/diaphragm preparation (striated muscle)
Assay: Muscle-relaxant effect on contractions of isolated rat phrenic nerve/diaphragm preparation induced by indirect stimulation via the phrenic nerve
Conditions: for inhibition at 10 µM / IC50: Rattus norvegicus; for inhibition at 10 µM: read-out: % INHIBITION OF CONTRACTIONS; for IC50: cumulative concentrations 10^−10 M to 10^−5 M, read-out: IC50 (concentration to obtain 50% of the inhibitory effect)
Description: Hecogenin acetate and diosgenin, sold by Sigma, were tested on a model of nerve/muscle (motor plate) junction obtained in a phrenic nerve/diaphragm preparation isolated from rat (striated muscle) (Pollard B. J. et al, Br. J. Anaesth., 1988, 61, 419-424).
The phrenic nerve and the diaphragm are carefully isolated and placed in a 50 ml tank filled with survival liquid (Krebs-Henseleit liquid) maintained at a temperature of 37° C. and oxygenated with an oxygen/CO2 mixture (95/5).
The tension variations of the diaphragm are recorded with an initial pre-load of several grams.
After a relaxation period of 30 minutes, the diaphragm is stimulated indirectly via the phrenic nerve. […]

[1] = contractions induced by indirect stimulation via phrenic nerve

Row | Compound | inhibition of the contractions induced by the indirect stimulations (concentration 10^−4 M) | effect on the contractions induced by the indirect stimulations (concentration 10^−5 M) | inhibition at 10 µM | IC50 [1] | inhibition at 10 µM (concentration 10^−5 M, contractions induced by indirect stimulation via phrenic nerve)
1 | CCN(CCCc1ccccc1)CCCc1ccccc1 [alverine, reference compound] | completely inhibits | no effect | – | – | –
2 | CC(=O)O[C@H]1CC[C@@]2(C)[C@@H](CC[C@@H]3[C@@H]2CC(=O)[C@]2(C)[C@@H]4[C@H](C[C@@H]32)O[C@]2(CC[C@@H](C)CO2)[C@H]4C)C1 [Hecogenin acetate] | – | – | 100% | 2500 nM | –
3 | C[C@@H]1CC[C@@]2(OC1)O[C@H]1C[C@H]3[C@@H]4CC=C5C[C@@H](O)CC[C@]5(C)[C@H]4CC[C@]3(C)[C@H]1[C@@H]2C [Diosgenin] | – | – | – | 1000 nM | 100%
